Measured values from PubChem BioAssay AID651889 (Broad Institute, 2012).
The source made the active and inactive calls.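 How the source made its calls: active means IC50 under 25 times the IC50 of the reference antimalarial drug in the parasite growth test; inactive means the rest.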

System: P. falciparum NF54 in erythrocytes, 3H-hypoxanthine incorporation, 72 h
Test: antimalarial activity against erythrocytic parasites – NF54 strain, plate reader, dry powder, dose response (AID 651889)

IC50: 580 nM (inactive)
Compound: C[C@@H]1CN([C@@H](C)CO)C(=O)c2cccc(NC(=O)c3ccncc3)c2O[C@H]1CN(C)Cc1ccc(Oc2ccccc2)cc1
